The results in this text go back to ChEMBL document CHEMBL4507319 (2021).

For test [1], the target named is Bone morphogenetic protein receptor type-1B (Homo sapiens) (UniProt O00238). The conditions noted are these: Compound concentration 1000.0 nM.
The target in test [2] is Ribosomal protein S6 kinase alpha-5 (Homo sapiens, UniProt O75582). Particulars: Compound concentration 1000.0 nM.
For test [3], the target named is Alpha-2C adrenergic receptor (Homo sapiens) (UniProt P18825). The conditions noted are these: Compound concentration 10.0 uM.
The test system of test [4] is Mast/stem cell growth factor receptor Kit (Homo sapiens), P10721 [D816V]. The conditions noted are these: Compound concentration 1000.0 nM.
Test [5] has as its target Dual specificity mitogen-activated protein kinase kinase 4 (Homo sapiens) (UniProt P45985). The conditions noted are these: Compound concentration 1000.0 nM.
The target in test [6] is T1, Activin receptor type-1 (Homo sapiens) (UniProt Q04771).
T1 sequence (whole entry): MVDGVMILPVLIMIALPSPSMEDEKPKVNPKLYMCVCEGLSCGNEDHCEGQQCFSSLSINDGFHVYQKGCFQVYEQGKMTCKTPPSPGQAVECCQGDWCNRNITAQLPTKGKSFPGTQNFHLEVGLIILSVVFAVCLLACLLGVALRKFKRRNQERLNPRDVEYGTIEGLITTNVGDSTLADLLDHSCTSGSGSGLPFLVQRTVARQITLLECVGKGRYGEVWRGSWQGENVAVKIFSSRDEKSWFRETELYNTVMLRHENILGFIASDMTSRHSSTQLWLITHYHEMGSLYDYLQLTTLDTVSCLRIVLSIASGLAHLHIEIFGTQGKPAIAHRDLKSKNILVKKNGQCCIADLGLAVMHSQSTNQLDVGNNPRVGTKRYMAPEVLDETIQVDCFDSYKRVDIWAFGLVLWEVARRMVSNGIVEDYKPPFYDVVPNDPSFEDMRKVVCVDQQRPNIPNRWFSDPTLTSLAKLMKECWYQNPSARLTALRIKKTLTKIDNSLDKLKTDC
The conditions noted are these: Compound concentration 1000.0 nM.

In test [7] the target is Serine/threonine-protein kinase MRCK alpha (Homo sapiens) (UniProt Q5VT25). The conditions noted are these: Compound concentration 1000.0 nM.
The target of test [8] is Ephrin type-A receptor 7 (Homo sapiens) (UniProt Q15375). Particulars: Compound concentration 1000.0 nM.
Test [9] relates to Phosphatidylinositol 4,5-bisphosphate 3-kinase catalytic subunit alpha isoform (Homo sapiens), P42336 [M1043I]. Particulars: Compound concentration 1000.0 nM.
The target in test [10] is Mitogen-activated protein kinase 1 (Homo sapiens) (UniProt P28482). Particulars: Compound concentration 1000.0 nM.
For test [11], the target named is T2, Ephrin type-B receptor 4 (Homo sapiens) (UniProt P54760).
T2 sequence (whole entry): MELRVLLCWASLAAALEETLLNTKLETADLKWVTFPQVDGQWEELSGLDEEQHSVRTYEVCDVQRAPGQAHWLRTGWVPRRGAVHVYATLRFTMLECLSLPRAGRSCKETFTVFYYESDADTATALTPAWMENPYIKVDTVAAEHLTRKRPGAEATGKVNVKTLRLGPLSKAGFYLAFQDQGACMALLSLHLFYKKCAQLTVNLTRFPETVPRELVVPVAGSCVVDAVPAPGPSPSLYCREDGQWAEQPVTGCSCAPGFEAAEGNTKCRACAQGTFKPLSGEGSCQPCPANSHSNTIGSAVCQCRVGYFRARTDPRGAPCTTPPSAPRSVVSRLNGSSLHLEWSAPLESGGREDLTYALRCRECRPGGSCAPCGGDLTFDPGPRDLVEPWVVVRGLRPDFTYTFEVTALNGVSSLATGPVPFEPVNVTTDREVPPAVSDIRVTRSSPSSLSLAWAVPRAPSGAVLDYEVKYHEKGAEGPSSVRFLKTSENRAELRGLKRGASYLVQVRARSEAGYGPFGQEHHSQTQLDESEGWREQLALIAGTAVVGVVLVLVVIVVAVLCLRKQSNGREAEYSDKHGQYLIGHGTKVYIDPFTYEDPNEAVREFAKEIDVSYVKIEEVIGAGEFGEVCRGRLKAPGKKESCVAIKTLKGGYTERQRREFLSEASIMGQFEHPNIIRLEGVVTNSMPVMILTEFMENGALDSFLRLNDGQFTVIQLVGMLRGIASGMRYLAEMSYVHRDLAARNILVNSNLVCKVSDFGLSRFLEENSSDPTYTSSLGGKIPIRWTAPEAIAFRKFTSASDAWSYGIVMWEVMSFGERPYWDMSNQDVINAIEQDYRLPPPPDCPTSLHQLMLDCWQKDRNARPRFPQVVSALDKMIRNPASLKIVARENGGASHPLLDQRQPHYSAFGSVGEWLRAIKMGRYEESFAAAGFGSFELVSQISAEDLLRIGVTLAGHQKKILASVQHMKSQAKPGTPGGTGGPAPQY
Particulars: Compound concentration 1000.0 nM.

Test [12] deals with ALK tyrosine kinase receptor (Homo sapiens) (UniProt Q9UM73). Particulars: Compound concentration 1000.0 nM.
The subject of test [13] is Mast/stem cell growth factor receptor Kit (Homo sapiens), P10721 [D816H]. Particulars: Compound concentration 1000.0 nM.
Test [14] deals with Ribosomal protein S6 kinase alpha-3 (Homo sapiens, UniProt P51812). Particulars: Compound concentration 1000.0 nM.

Mast/stem cell growth factor receptor Kit (Homo sapiens), P10721 [D816H], sequence (P10721 whole entry D816H): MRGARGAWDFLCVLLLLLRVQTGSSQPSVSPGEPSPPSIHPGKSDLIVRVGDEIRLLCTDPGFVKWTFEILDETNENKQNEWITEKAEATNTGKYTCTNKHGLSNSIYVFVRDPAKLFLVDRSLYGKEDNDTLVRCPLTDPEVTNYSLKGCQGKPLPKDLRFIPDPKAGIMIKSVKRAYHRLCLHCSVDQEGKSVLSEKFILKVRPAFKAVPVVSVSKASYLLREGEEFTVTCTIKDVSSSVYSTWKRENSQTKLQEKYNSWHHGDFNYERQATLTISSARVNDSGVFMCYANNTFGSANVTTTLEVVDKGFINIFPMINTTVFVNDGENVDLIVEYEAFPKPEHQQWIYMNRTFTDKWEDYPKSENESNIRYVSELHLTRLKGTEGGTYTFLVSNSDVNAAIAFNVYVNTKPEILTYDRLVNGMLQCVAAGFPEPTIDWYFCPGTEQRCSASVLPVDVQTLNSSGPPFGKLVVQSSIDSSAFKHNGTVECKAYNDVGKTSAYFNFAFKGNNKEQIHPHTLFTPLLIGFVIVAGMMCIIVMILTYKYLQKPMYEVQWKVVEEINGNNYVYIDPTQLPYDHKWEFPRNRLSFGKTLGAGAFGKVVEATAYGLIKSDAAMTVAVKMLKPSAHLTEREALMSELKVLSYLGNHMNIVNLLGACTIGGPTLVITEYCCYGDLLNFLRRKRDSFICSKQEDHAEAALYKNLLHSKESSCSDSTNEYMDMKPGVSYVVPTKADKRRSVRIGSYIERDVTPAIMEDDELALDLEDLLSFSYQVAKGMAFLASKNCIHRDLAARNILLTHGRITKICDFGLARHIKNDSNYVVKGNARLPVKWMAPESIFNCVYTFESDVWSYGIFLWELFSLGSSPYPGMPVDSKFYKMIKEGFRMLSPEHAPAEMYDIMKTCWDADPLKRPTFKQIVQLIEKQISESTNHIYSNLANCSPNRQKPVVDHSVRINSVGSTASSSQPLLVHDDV
Mast/stem cell growth factor receptor Kit (Homo sapiens), P10721 [D816V], sequence (P10721 whole entry D816V): as the sequence (P10721 whole entry D816H) above, with H816V counted along it
Serine/threonine-protein kinase MRCK alpha (Homo sapiens), sequence (Q5VT25 whole entry): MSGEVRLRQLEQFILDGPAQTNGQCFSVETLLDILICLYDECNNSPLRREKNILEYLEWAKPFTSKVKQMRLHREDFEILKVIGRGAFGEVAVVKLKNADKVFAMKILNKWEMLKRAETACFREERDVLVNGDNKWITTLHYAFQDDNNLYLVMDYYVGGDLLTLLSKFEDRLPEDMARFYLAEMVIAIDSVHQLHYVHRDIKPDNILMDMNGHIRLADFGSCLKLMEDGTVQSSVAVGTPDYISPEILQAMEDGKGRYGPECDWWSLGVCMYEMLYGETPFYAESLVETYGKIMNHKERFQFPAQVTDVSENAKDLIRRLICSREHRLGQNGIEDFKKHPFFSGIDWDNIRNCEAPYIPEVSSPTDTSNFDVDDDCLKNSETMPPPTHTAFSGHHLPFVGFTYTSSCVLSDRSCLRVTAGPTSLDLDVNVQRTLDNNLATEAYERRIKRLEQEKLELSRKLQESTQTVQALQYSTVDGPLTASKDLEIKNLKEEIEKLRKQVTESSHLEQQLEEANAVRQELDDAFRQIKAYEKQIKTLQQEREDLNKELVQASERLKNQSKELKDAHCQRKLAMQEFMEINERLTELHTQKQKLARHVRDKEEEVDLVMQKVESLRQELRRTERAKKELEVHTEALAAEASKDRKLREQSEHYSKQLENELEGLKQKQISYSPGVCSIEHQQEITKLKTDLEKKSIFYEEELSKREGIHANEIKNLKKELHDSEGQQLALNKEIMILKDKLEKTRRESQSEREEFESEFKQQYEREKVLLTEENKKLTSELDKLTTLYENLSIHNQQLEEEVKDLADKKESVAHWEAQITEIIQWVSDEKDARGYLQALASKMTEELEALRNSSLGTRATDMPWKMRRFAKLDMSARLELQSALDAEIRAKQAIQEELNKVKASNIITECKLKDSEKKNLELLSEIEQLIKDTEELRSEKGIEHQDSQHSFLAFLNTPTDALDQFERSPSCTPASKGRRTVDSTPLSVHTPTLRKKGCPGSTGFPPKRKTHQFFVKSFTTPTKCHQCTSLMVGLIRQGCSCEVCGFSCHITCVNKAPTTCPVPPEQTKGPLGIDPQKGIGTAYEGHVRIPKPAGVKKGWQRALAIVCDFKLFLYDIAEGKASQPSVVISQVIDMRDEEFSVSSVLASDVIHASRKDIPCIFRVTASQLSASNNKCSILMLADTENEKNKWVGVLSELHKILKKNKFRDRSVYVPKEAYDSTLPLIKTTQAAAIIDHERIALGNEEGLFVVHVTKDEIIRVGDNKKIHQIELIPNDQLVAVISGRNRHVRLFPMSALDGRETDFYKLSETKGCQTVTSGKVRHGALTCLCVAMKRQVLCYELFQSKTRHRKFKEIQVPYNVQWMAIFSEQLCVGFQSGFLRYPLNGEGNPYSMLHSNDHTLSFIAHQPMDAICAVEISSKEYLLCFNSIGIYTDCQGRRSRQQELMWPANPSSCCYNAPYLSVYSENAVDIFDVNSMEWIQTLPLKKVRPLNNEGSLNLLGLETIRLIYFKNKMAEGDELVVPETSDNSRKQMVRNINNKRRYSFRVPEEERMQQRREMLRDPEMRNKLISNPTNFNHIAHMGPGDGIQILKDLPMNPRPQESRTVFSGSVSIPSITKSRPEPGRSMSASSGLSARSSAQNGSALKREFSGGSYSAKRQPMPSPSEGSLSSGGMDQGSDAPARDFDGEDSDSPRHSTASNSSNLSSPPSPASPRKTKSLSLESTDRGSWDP
Phosphatidylinositol 4,5-bisphosphate 3-kinase catalytic subunit alpha isoform (Homo sapiens), P42336 [M1043I], sequence (P42336 whole entry M1043I, canonical isoform): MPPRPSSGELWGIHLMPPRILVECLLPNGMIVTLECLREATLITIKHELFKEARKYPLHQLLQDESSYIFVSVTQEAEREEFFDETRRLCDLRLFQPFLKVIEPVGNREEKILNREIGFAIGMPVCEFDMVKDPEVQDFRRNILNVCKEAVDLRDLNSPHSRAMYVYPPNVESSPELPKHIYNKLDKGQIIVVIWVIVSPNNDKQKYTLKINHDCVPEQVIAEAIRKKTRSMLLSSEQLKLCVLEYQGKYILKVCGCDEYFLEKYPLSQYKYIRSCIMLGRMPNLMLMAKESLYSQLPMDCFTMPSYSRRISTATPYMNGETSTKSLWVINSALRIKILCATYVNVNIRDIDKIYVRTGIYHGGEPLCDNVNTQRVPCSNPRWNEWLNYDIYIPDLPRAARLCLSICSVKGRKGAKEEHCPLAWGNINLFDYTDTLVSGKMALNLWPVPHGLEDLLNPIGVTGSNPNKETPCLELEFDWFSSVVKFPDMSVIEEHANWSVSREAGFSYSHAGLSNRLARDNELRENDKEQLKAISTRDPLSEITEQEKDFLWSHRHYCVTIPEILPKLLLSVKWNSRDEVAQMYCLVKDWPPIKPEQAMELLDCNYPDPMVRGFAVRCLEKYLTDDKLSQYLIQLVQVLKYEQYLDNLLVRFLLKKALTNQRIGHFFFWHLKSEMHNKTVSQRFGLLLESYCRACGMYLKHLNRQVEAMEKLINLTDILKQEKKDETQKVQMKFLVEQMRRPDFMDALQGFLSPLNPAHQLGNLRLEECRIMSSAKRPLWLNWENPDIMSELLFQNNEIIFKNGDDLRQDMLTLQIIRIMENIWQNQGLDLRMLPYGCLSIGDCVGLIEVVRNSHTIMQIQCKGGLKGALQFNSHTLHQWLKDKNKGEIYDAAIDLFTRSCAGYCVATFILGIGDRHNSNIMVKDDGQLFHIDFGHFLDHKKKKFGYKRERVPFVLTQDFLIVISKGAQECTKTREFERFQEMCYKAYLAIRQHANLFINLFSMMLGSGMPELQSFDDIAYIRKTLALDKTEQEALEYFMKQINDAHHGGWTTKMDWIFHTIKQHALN
Bone morphogenetic protein receptor type-1B (Homo sapiens), sequence (O00238 whole entry): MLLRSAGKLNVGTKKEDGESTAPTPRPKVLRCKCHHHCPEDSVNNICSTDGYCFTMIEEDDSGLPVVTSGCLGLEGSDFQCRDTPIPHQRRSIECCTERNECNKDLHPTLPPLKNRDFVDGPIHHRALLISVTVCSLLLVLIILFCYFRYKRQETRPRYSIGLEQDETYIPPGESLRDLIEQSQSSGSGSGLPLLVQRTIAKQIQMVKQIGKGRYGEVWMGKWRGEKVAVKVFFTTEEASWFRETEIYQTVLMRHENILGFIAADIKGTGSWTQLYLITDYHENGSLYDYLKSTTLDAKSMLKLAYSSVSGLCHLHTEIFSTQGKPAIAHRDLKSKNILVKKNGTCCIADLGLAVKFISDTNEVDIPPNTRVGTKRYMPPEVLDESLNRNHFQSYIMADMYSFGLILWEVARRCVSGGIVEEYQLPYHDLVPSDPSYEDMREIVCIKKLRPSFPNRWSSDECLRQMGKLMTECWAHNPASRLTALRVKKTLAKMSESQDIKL
Mitogen-activated protein kinase 1 (Homo sapiens), sequence (P28482 whole entry): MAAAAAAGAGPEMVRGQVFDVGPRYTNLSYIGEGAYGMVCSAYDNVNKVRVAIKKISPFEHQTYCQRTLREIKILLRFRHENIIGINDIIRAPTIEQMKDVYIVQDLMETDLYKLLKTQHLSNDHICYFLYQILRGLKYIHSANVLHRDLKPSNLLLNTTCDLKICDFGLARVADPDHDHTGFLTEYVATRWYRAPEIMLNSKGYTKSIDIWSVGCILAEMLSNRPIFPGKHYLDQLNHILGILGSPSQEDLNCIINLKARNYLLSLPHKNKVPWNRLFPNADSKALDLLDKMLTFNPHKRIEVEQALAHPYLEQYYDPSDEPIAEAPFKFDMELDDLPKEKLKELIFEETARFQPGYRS
Dual specificity mitogen-activated protein kinase kinase 4 (Homo sapiens), sequence (P45985 whole entry): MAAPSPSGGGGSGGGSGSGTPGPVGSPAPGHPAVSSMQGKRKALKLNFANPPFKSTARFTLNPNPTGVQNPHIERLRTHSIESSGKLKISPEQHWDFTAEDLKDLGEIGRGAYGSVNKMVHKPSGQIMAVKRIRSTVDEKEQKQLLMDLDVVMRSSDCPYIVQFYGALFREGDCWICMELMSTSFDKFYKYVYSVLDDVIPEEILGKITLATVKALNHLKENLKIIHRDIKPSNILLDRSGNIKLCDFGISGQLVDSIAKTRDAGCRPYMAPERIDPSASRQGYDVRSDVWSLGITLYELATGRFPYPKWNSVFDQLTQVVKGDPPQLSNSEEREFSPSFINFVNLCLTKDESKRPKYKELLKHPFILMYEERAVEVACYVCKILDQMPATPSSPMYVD

As a reminder, the inhibition is the share of the control response that was lost under treatment. With `CC1=C(C#N)C(c2ccc3c(c2)c(NC(=O)c2ccccc2C)nn3C)C(C#N)=C(C)N1` [BAY-974], the residual activity is 91% in test [1]; 91% in test [2]; 85% in test [4]; 79% in test [5]; 99% in test [6]; 100% in [7]. Besides, the residual activity in test [8] was 100%; in [9], 100%; in test [10], 80%; in test [11] it was 97%; in test [12], 100%; in test [13], 64%. Further, in [14], the residual activity is 94%. Further, in [3], the inhibition was 10.2%.
`CCc1ccccc1C(=O)Nc1n[nH]c2c(C)c(F)c(C3C(C#N)=C(C)N(C)C(C)=C3C#N)cc12` [BAY-3827]: the residual activity was 96% in [1]; 1% in test [2]; 55% in test [4]; 100% in test [5]; 100% in test [6]; 100% in test [7]. For the same molecule, the residual activity is 81% in [8]; 75% in test [9]; 86% in [10]; 51% in test [11]; 98% in test [12]; 100% in [13]. Further, the residual activity in test [14] is 100%. The inhibition in test [3] is 10%.
